Assay results: PubChem BioAssay (NCI)
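Cells were grown in 96-well plates and exposed to each compound for 48 hours at five concentrations; endpoints were interpolated linearly between bracketing concentrations, or set to the highest concentration if not reached. GI50: concentration for 50% inhibition of growth. At the TGI there is no net growth.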

Experiments:
Experiment in all cases: DTP human tumour cell line panel, 48 h; in the data active means GI50 below about 0.43 µM; inactive means the rest
[1] = tested on: 786-0 renal
[2] = tested on: A498 renal
[3] = tested on: A549 NSCLC
[4] = tested on: ACHN renal
[5] = tested on: BT-549 breast
[6] = tested on: CAKI-1 renal
[7] = tested on: CCRF-CEM leukemia
[8] = tested on: COLO 205 colon
[9] = tested on: DU-145 prostate
[10] = tested on: EKVX NSCLC
[11] = tested on: HCC-2998 colon
[12] = tested on: HCT-116 colon
[13] = tested on: HCT-15 colon
[14] = tested on: HL-60(TB) leukemia
[15] = tested on: HOP-62 NSCLC
[16] = tested on: HOP-92 NSCLC
[17] = tested on: HS 578T breast
[18] = tested on: HT29 colon
[19] = tested on: IGROV1 ovarian
[20] = tested on: K-562 leukemia
[21] = tested on: KM12 colon
[22] = tested on: LOX IMVI melanoma
[23] = tested on: M14 melanoma
[24] = tested on: MALME-3M melanoma
[25] = tested on: MCF7 breast
[26] = tested on: MDA-MB-231 breast
[27] = tested on: MDA-MB-435
[28] = tested on: MOLT-4 leukemia
[29] = tested on: NCI-H226 lung
[30] = tested on: NCI-H23 lung
[31] = tested on: NCI-H460 lung
[32] = tested on: NCI-H522 lung
[33] = tested on: NCI/ADR-RES ovarian
[34] = tested on: OVCAR-3 ovarian
[35] = tested on: OVCAR-4 ovarian
[36] = tested on: OVCAR-5 ovarian
[37] = tested on: OVCAR-8 ovarian
[38] = tested on: PC-3 prostate
[39] = tested on: RPMI-8226 leukemia
[40] = tested on: RXF 393 renal
[41] = tested on: SF-268 CNS
[42] = tested on: SF-295 CNS
[43] = tested on: SF-539 CNS
[44] = tested on: SK-MEL-2 melanoma
[45] = tested on: SK-MEL-28 melanoma
[46] = tested on: SK-MEL-5 melanoma
[47] = tested on: SK-OV-3 ovarian
[48] = tested on: SN12C renal
[49] = tested on: SNB-19 CNS
[50] = tested on: SNB-75 CNS
[51] = tested on: SR leukemia
[52] = tested on: SW-620 colon
[53] = tested on: T-47D breast
[54] = tested on: TK-10 renal
[55] = tested on: U251 CNS
[56] = tested on: UACC-257 melanoma
[57] = tested on: UACC-62 melanoma
[58] = tested on: UO-31 renal

COc1cc(NC(=O)c2ccc(C(F)(F)F)nc2Nc2cc(Cl)ccc2C)cc(OC)c1OC
30.5 µM: TGI [49]
34 µM: TGI [4]
12.2 µM: TGI [38]
16.3 µM: TGI [39]
48.3 µM: TGI [33]
17 µM: TGI [57]
7.8 µM: TGI [14]
22.9 µM: TGI [18]
20.8 µM: TGI [23]
39.6 µM: TGI [9]
21.4 µM: TGI [1] | TGI [5]
24.4 µM: TGI [42] | TGI [50]
16.6 µM: TGI [15]
29.6 µM: TGI [47]
16.9 µM: TGI [55]
37.6 µM: TGI [10]
21.6 µM: TGI [52]
19.4 µM: TGI [17]
20 µM: TGI [22]
41.8 µM: TGI [6]
28.6 µM: TGI [44]
27.9 µM: TGI [40]
inactive: GI50 [1] 4.72 µM | GI50 [2] 4.14 µM | GI50 [3] 6 µM | GI50 [4] 5.13 µM | GI50 [5] 6.56 µM | GI50 [6] 4.88 µM | GI50 [7] 0.452 µM | GI50 [8] 7 µM | GI50 [9] 12.6 µM | GI50 [10] 4.54 µM | GI50 [11] 0.985 µM | GI50 [12] 2.93 µM | GI50 [13] 4.35 µM | GI50 [15] 5.1 µM | GI50 [16] 0.801 µM | GI50 [17] 3.9 µM | GI50 [18] 8.12 µM | GI50 [19] 0.852 µM | GI50 [20] 1.77 µM | GI50 [21] 4.51 µM | GI50 [22] 7.06 µM | GI50 [23] 4.64 µM | GI50 [24] 9.84 µM | GI50 [25] 3.78 µM | GI50 [26] 2.94 µM | GI50 [27] 4.94 µM | GI50 [29] 11.2 µM | GI50 [30] 3.06 µM | GI50 [31] 6 µM | GI50 [32] 2.93 µM | GI50 [33] 5.91 µM | GI50 [34] 6.47 µM | GI50 [35] 3.16 µM | GI50 [36] 12.3 µM | GI50 [37] 10.8 µM | GI50 [38] 1.89 µM | GI50 [39] 1.18 µM | GI50 [40] 6.52 µM | GI50 [41] 6.63 µM | GI50 [42] 5.66 µM | GI50 [43] 9.89 µM | GI50 [44] 8.16 µM | GI50 [45] 8.74 µM | GI50 [46] 1.75 µM | GI50 [47] 7.69 µM | GI50 [48] 7.76 µM | GI50 [49] 10.4 µM | GI50 [50] 3.07 µM | GI50 [52] 6.49 µM | GI50 [53] 3.99 µM | GI50 [54] 15.8 µM | GI50 [55] 4.27 µM | GI50 [56] 4.55 µM | GI50 [57] 2.53 µM | GI50 [58] 3.48 µM
0.823 µM: TGI [28]
20.2 µM: TGI [19]
32.8 µM: TGI [29]
35.6 µM: TGI [36]
active: GI50 [14] 0.194 µM | GI50 [51] 0.215 µM
16 µM: TGI [58]
12.3 µM: TGI [46]
14.3 µM: TGI [26]
27 µM: TGI [45]
21.3 µM: TGI [31]
19.7 µM: TGI [56]
25.9 µM: TGI [20]
34.2 µM: TGI [27]
19 µM: TGI [13]
27.4 µM: TGI [25]
22 µM: TGI [7] | TGI [21]
18.2 µM: TGI [2] | TGI [32]
20.6 µM: TGI [8]
45.7 µM: TGI [3]
11 µM: TGI [16]
47.7 µM: TGI [24]
34.1 µM: TGI [34]
27.8 µM: TGI [30] | TGI [41]
24.2 µM: TGI [48]
> 67.9 µM: TGI [54]
14.1 µM: TGI [12]
50.8 µM: TGI [43]
> 80.1 µM: TGI [37]
27.1 µM: TGI [53]
15 µM: TGI [11]
43.5 µM: TGI [35]
1.57 µM: TGI [51]

CCOC(=O)c1c(-c2ccccc2)oc(=O)c(Cc2cccc3cccnc23)c1-c1ccccc1
> 10 µM: TGI [1] | TGI [2] | TGI [3] | TGI [4] | TGI [5] | TGI [6] | TGI [7] | TGI [8] | TGI [9] | TGI [10] | TGI [11] | TGI [12] | TGI [13] | TGI [14] | TGI [15] | TGI [16] | TGI [17] | TGI [18] | TGI [19] | TGI [20] | TGI [21] | TGI [22] | TGI [23] | TGI [24] | TGI [25] | TGI [26] | TGI [27] | TGI [28] | TGI [29] | TGI [30] | TGI [31] | TGI [32] | TGI [33] | TGI [34] | TGI [35] | TGI [36] | TGI [37] | TGI [38] | TGI [39] | TGI [40] | TGI [41] | TGI [42] | TGI [43] | TGI [44] | TGI [45] | TGI [46] | TGI [47] | TGI [48] | TGI [49] | TGI [50] | TGI [51] | TGI [52] | TGI [53] | TGI [54] | TGI [55] | TGI [56] | TGI [57] | TGI [58]
